Reference: patent US20070082880A1 (priority 2005, published 2007)

Molecular target: T1, human PKCθ full length enzyme (Homo sapiens, UniProt Q04759)
T1 construct: human PKCθ full length enzyme (Panvera Catalog No. P2996); purchased Panvera P2996
Assay: PKCθ IMAP Assay
Assay type: biochemical
Conditions: average value when one or more samples were tested; ATP 6 uM, PKCθ 1 nM
Method: The materials used include the following: human PKCθ full length enzyme (Panvera Catalog No. P2996); substrate peptide: 5FAM-[…]-OH (Molecular Devices, RP7032); ATP (Sigma Cat # A2383); DTT (Pierce, 20291); 5× kinase reaction buffer (Molecular Devices, R7209); 5× binding buffer A (Molecular Devices, R7282), 5× binding buffer B (Molecular Devices, R7209); IMAP Beads (Molecular Devices, R7284); and 384-well plates (Corning Costar, 3710).
The reaction buffer was prepared by diluting the 5× stock reaction buffer and adding DTT to obtain a concentration of 3.0 mM. The binding buffer was prepared by diluting the 5× binding buffer A. A master mix solution was prepared using a 90% dilution of the reaction buffer containing 2×ATP (12 uM) and 2× peptide ([…]). […] The final concentration of compound was 2× and 10% DMSO. DMSO was added to the rest of the master mix to increase the concentration to 10%. 10 ul of the master mix containing 10% DMSO was added to the rest of the wells on the plate except the 2nd column. 20 ul was transferred from the first column to the 2nd column. The compounds were serially diluted in 2:1 ratio starting from the 2nd column. A 2× (2 nM) PKCθ solution was made in the reaction buffer. 10 ul of the PKCθ solution was added to every well to achieve these final concentrations: PKCθ—1 nM; ATP—6 uM; peptide—100 nM; DMSO—5%. Samples were incubated for 25 minutes at room temperature. The binding reagent was prepared by diluting the beads in 1× binding buffer to 800:1. 50 ul of the binding reagent was added to every well and incubated for 20 minutes. FP was measured using Envision2100 (PerkinElmer Life Sciences). Wells with no ATPs and wells with no enzymes were used as controls.

T1 sequence (Q04759 whole entry): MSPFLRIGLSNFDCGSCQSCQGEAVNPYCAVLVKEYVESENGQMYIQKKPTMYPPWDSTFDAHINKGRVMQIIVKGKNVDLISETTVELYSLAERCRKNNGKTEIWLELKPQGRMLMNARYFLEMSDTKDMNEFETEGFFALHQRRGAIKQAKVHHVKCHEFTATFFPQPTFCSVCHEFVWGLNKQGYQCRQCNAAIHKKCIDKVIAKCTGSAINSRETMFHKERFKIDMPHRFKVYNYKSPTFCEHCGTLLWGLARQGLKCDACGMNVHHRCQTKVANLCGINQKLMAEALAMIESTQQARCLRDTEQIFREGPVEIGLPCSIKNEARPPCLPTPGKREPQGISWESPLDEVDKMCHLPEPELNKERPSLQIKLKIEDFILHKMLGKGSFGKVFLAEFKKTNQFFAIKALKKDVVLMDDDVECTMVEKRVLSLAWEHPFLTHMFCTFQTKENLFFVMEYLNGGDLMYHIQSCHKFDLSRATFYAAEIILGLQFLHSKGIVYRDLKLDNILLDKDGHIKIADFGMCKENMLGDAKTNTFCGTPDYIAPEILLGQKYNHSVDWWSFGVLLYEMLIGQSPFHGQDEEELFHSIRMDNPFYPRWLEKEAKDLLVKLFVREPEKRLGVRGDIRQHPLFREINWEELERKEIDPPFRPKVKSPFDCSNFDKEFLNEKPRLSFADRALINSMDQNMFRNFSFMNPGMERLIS

| Compound | IC50 |
| --- | --- |
| Cc1c(Nc2c(C#N)cnc3sc(/C=C/C(=O)N4CCC[C@H]4CN4CCCC4)cc23)ccc2[nH]ccc12 [Compound 299, 4-[(4-methyl-1H-indol-5-yl)amino]-2-{(1E)-3-oxo-3-[(2S)-2-(pyrrolidin-1-ylmethyl)pyrrolidin-1-yl]prop-1-en-1-yl}thieno[2,3-b]pyridine-5-carbonitrile] | 32 nM |
| CNS(=O)(=O)c1ccc(-c2cc3c(Nc4ccc5[nH]ccc5c4C)c(C#N)cnc3s2)cc1 [Compound 230, 4-{5-cyano-4-[(4-methyl-1H-indol-5-yl)amino]thieno[2,3-b]pyridin-2-yl}-N-methylbenzenesulfonamide] | 9 nM |
| COc1cccc(/C=C/c2cc3c(Nc4ccc5[nH]ccc5c4)c(C#N)cnc3s2)c1 [Compound 404, 4-(1H-indol-5-ylamino)-2-[(E)-2-(3-methoxyphenyl)vinyl]thieno[2,3-b]pyridine-5-carbonitrile] | 1140 nM |
| N#Cc1cnc2sc(-c3cccc(CN4CCCCC4)c3)cc2c1Nc1ccc2[nH]ccc2c1 [Compound 160, 4-(1H-indol-5-ylamino)-2-[3-(piperidin-1-ylmethyl)phenyl]thieno[2,3-b]pyridine-5-carbonitrile] | 360 nM |
| CNS(=O)(=O)c1ccc(-c2sc3ncc(C#N)c(Nc4ccc5[nH]ccc5c4C)c3c2C)cc1 [Compound 414, 4-{5-cyano-3-methyl-4-[(4-methyl-1H-indol-5-yl)amino]thieno[2,3-b]pyridin-2-yl}-N-methylbenzenesulfonamide] | 29 nM |
| Cc1ccc(/C=C/c2cc3c(Nc4ccc5[nH]ccc5c4)c(C#N)cnc3s2)cc1 [Compound 406, 4-(1H-indol-5-ylamino)-2-[(E)-2-(4-methylphenyl)vinyl]thieno[2,3-b]pyridine-5-carbonitrile] | 12000 nM |
| CON(C)C(=O)c1cccc(-c2cc3c(Nc4ccc5[nH]ccc5c4)c(C#N)cnc3s2)c1 [Compound 344, 3-[5-cyano-4-(1H-indol-5-ylamino)thieno[2,3-b]pyridin-2-yl]-N-methoxy-N-methylbenzamide] | 818 nM |
| Cc1c(Nc2c(C#N)cnc3sc(-c4ccccc4N)cc23)ccc2[nH]ccc12 [Compound 436, 2-(2-aminophenyl)-4-[(4-methyl-1H-indol-5-yl)amino]thieno[2,3-b]pyridine-5-carbonitrile] | 215 nM |
| CN(C)C(=O)c1cccc(-c2cc3c(Nc4ccc5[nH]ccc5c4)c(C#N)cnc3s2)c1 [Compound 195, 3-[5-cyano-4-(1H-indol-5-ylamino)thieno[2,3-b]pyridine-2-yl]-N,N-dimethylbenzamide] | 420 nM |
| Cc1c(Nc2c(C#N)cnc3sc(-c4cc(CN(C)C)ccc4F)cc23)ccc2[nH]ccc12 [Compound 463, 2-{5-[(dimethylamino)methyl]-2-fluorophenyl}-4-[(4-methyl-1H-indol-5-yl)amino]thieno[2,3-b]pyridine-5-carbonitrile] | 14 nM |
| Cc1c(Nc2c(C#N)cnc3sc(-c4cncc(CN(C)C)c4)cc23)ccc2[nH]ccc12 [Compound 462, 2-{5-[(dimethylamino)methyl]pyridin-3-yl}-4-[(4-methyl-1H-indol-5-yl)amino]thieno[2,3-b]pyridine-5-carbonitrile] | 83 nM |
| 2-{3-[2-(dimethylamino)ethyl]phenyl}-4-(1H-indol-5-ylamino)thieno[2,3-b]pyridine-5-carbonitrile [Compound 112] | 69 nM |
| N#Cc1cnc2sc(-c3cccc(CN4CCCC(CO)C4)c3)cc2c1Nc1ccc2[nH]ccc2c1 (stereo not shown) [Compound 173, 2-(3-{[3-(hydroxymethyl)piperidin-1-yl]methyl}phenyl)-4-(1H-indol-5-ylamino)thieno[2,3-b]pyridine-5-carbonitrile] | 130 nM |
| Cc1c(Nc2c(C#N)cnc3sc(C4=CCNCC4)cc23)ccc2[nH]ccc12 [Compound 474, 4-[(4-methyl-1H-indol-5-yl)amino]-2-(1,2,3,6-tetrahydropyridin-4-yl)thieno[2,3-b]pyridine-5-carbonitrile] | 10 nM |
| Cc1c(Nc2c(C#N)cnc3sc(/C=C/C(=O)Nc4ccncc4)cc23)ccc2[nH]ccc12 [Compound 304, (2E)-3-{5-cyano-4-[(4-methyl-1H-indol-5-yl)amino]thieno[2,3-b]pyridin-2-yl}-N-pyridin-4-ylacrylamide] | 43 nM |

More lines, in order of falling IC50, values ahead:

| IC50 | Compound |
| --- | --- |
| 14100 nM | Cc1ccc(S(=O)(=O)n2ccc3c(Cl)c(Nc4c(C#N)cnc5sc(I)cc45)cnc32)cc1 [Compound 522, 4-({4-chloro-1-[(4-methylphenyl)sulfonyl]-1H-pyrrolo[2,3-b]pyridin-5-yl}amino)-2-iodothieno[2,3-b]pyridine-5-carbonitrile] |
| 570 nM | CCCOc1ccccc1-c1cc2c(Nc3ccc4[nH]ccc4c3C)c(C#N)cnc2s1 [Compound 382, 4-[(4-methyl-1H-indol-5-yl)amino]-2-(2-propoxyphenyl)thieno[2,3-b]pyridine-5-carbonitrile] |
| 570 nM | CN(C)Cc1ccccc1-c1cc2c(Nc3ccc4[nH]ccc4c3)c(C#N)cnc2s1 [Compound 114, 2-{2-[(dimethylamino)methyl]phenyl}-4-(1H-indol-5-ylamino)thieno[2,3-b]pyridine-5-carbonitrile] |
| 480 nM | CN(C)c1cccc(-c2cc3c(Nc4ccc5[nH]ccc5c4)c(C#N)cnc3s2)c1 [Compound 197, 2-[3-(dimethylamino)phenyl]-4-(1H-indol-5-ylamino)thieno[2,3-b]pyridine-5-carbonitrile] |
| 240 nM | N#Cc1cnc2sc(-c3cccc(CN4CCC(CO)CC4)c3)cc2c1Nc1ccc2[nH]ccc2c1 [Compound 174, 2-(3-{[4-(hydroxymethyl)piperidin-1-yl]methyl}phenyl)-4-(1H-indol-5-ylamino)thieno[2,3-b]pyridine-5-carbonitrile] |
| 232 nM | Cc1c(Nc2c(C#N)cnc3sc(C(=O)N4CCNCC4)cc23)ccc2[nH]ccc12 [Compound 265, 4-[(4-methyl-1H-indol-5-yl)amino]-2-(piperazin-1-ylcarbonyl)thieno[2,3-b]pyridine-5-carbonitrile] |
| 177 nM | Cc1c(Nc2c(C#N)cnc3sc(-c4ccccc4OC[C@H](C)O)cc23)ccc2[nH]ccc12 [Compound 491, 2-(2-{[(2S)-2-hydroxypropyl]-oxy}phenyl)-4-[(4-methyl-1H-indol-5-yl)amino]thieno[2,3-b]pyridine-5-carbonitrile] |
| 175 nM | Cc1c(Nc2c(C#N)cnc3sc(/C=C/C(=O)N4CC[C@@H](N(C)C)C4)cc23)ccc2[nH]ccc12 [Compound 300, 2-{(1E)-3-[(3R)-3-(dimethylamino)pyrrolidin-1-yl]-3-oxoprop-1-en-1-yl}-4-[(4-methyl-1H-indol-5-yl)amino]thieno[2,3-b]pyridine-5-carbonitrile] |
| 169 nM | CCCOc1c(C=O)cc(C)cc1-c1cc2c(Nc3ccc4[nH]ccc4c3C)c(C#N)cnc2s1 [Compound 379, 2-(3-formyl-5-methyl-2-propoxyphenyl)-4-[(4-methyl-1H-indol-5-yl)amino]thieno[2,3-b]pyridine-5-carbonitrile] |
| 151 nM | Cc1c(Nc2c(C#N)cnc3sc(-c4ccccc4CNCCCO)cc23)ccc2[nH]ccc12 [Compound 469, 2-(2-{[(3-hydroxypropyl)amino]methyl}phenyl)-4-[(4-methyl-1H-indol-5-yl)amino]thieno[2,3-b]pyridine-5-carbonitrile] |
| 130 nM | N#Cc1cnc2sc(-c3cccc(CN4CCCCC4CO)c3)cc2c1Nc1ccc2[nH]ccc2c1 (stereo not shown) [Compound 182] |
| 77 nM | CN(C)Cc1cscc1-c1cc2c(Nc3ccc4[nH]ccc4c3)c(C#N)cnc2s1 [Compound 464, 2-{4-[(dimethylamino)methyl]-3-thienyl}-4-(1H-indol-5-ylamino)thieno[2,3-b]pyridine-5-carbonitrile] |
| 66 nM | Cc1c(Nc2c(C#N)cnc3sc(-c4cc(C(=O)N(C)C)ccc4F)cc23)ccc2[nH]ccc12 [Compound 511, 3-{5-cyano-4-[(4-methyl-1H-indol-5-yl)amino]thieno[2,3-b]pyridin-2-yl}-4-fluoro-N,N-dimethylbenzamide] |
| 57 nM | Cc1c(Nc2c(C#N)cnc3sc(-c4cc5ccccc5s4)cc23)ccc2[nH]ccc12 [Compound 373, 2-(1-benzothien-2-yl)-4-[(4-methyl-1H-indol-5-yl)amino]thieno[2,3-b]pyridine-5-carbonitrile] |
| 41 nM | Cc1c(Nc2c(C#N)cnc3sc(/C=C/C(=O)N4CCC(O)C4)cc23)ccc2[nH]ccc12 (stereo not shown) [Compound 310, 2-[(1E)-3-(3-hydroxypyrrolidin-1-yl)-3-oxoprop-1-en-1-yl]-4-[(4-methyl-1H-indol-5-yl)amino]thieno[2,3-b]pyridine-5-carbonitrile] |
| 11 nM | Cc1c(Nc2c(C#N)cnc3scc(-c4cccc(CN(C)C)c4)c23)ccc2[nH]ccc12 [Compound 508, 3-{3-[(dimethylamino)methyl]phenyl}-4-[(4-methyl-1H-indol-5-yl)amino]thieno[2,3-b]pyridine-5-carbonitrile] |
